Experiment [1] addresses T1, hGPR38R (Homo sapiens, UniProt O43193). Nature of the experiment: GPR38 FLIPR functional agonist assay. As to conditions: HEK-293 cells stably expressing the GPR38 receptor, agonist response, Fluo-4 fluorescence. Set-up: expressed in transfected cells. It is filed as cell-based. The method, then:
The potencies and efficacies of the compounds of this invention for GPR^38 can be determined by FLIPR assay performed on the human cloned receptor as described herein. It has been found, using the FLIPR functional assay, that compounds of formula (I) appear to be partial or full agonists of the GPR38 receptor.
GPR38FLIPR Functional Agonist Assay Protocol
HEK-293 cells stably expressing the GPR38 receptor were seeded (10,000 cells/well) into poly-D-lysine coated 384-well black-wall, clear-bottom microtitre plates (Becton Dickinson) 24 h prior to assay. On day of assay, cells were washed (×2) with 80 ul of assay buffer (Hanks Balanced Salts Solution (HBSS), 10 mM HEPES, 200 μM Ca^2+, 2.5 mM probenecid) using the EMBLA cell washer. After the final wash, buffer was aspirated to leave a residual volume of 30 ul on the cells. Cells were loaded with 1 μM (final) Fluo-4-AM fluorescent indicator dye (TefLabs) in assay buffer, (20 ul loading solution added to each well using the Multidrop). Plates were incubated for 1 h at 37° C., before being washed (×3) with 80 ul assay buffer using the EMBLA cell washer; 30 ul residual being left after the final wash. Plates were then assayed on a Fluorometric Imaging Plate Reader (FLIPR, Molecular Devices). Test compounds were prepared in assay buffer without probenecid, but containing 0.03% CHAPS. In the FLIPR, 10 ul of test compound was added to the cells and changes in fluorescence measured over a 2 min timeframe. Maximum change in fluorescence over baseline was used to determine agonist response and concentration response curves were constructed, using a 4-parameter logistic equation.
(§1) The following alternative procedure may also be used:
HEK-293 cells stably expressing the GPR38 receptor were seeded (30,000 cells/100 ul growth media/well) into poly-D-lysine coated 96-well black-wall, clear-bottom microtitre plates (Corning) 24 hours prior to assay. On the day of assay the cells were loaded with 2 μM (final) Fluo-4-AM fluorescent indicator dye (Molecular Probes) and 1 mM (final) probenicid in assay buffer (145 mM sodium chloride, 2.5 mM potassium chloride, 10 mM Hepes, 10 mM glucose, 1.2 mM magnesium chloride, 1.5 mM calcium chloride and 0.1% BSA) (50 ul loading solution added to each well). Plates were incubated for 1 hour at 25° C., before being washed 4 times with 100 ul assay buffer using the EMBLA cell washer; 150 ul residual being left after the final wash. The cells were then incubated at 25° C. for 20 minutes and the plates were then assayed on a Fluorometric Imaging Plate Reader (FLIPR, Molecular Devices). Test compounds were prepared in assay buffer without probenecid. In the FLIPR, 50 ul of test compound was added to the cells and changes in fluorescence measured over a 2 minute timeframe. Maximum change in fluorescence over baseline was used to determine agonist response and concentration response curves were constructed, using a 4-parameter logistic equation.
Target sequence in this assay (O43193 whole entry): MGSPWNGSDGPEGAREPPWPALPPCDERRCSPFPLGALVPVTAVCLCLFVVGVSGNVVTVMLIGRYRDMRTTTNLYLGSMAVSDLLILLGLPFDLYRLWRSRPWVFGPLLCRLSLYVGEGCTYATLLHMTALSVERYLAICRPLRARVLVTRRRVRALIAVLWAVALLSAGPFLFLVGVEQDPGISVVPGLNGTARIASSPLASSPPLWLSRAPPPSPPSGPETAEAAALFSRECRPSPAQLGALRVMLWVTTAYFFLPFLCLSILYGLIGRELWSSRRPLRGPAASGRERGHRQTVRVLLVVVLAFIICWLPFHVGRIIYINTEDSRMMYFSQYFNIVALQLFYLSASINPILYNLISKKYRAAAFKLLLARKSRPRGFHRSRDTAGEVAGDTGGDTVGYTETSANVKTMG

Experiment [2] has as its target T1, hGPR38R. Kind of experiment: GPR38 GTPγS functional agonist assay. The format is biochemical. Set-up: expressed in transfected cells; host or cells: HEK293 (transient transfection; P2 membrane fractions). As for the experimental part:
The potencies and intrinsic activities of the compounds of this invention can also be determined according to the [35S]GTPγS functional assay which is described herein. It has been found, using the [35S]GTPγS functional assay, that compounds of formula (I) appear to be partial or full agonists of the GPR38 receptor.
GPR38GTPγS Functional Agonist Assay Protocol
For each compound being assayed, in an Opti clear bottom 96 well plate, is added:—
(a) 20 μl of test compound (or 10 μl of guanosine 5′-triphosphate (GTP) as non-specific binding control) diluted to required concentration in assay buffer (20 mM N-2-Hydroxyethylpiperazine-N′-2-ethanesulfonic acid (HEPES)+100 mM NaCl+10 mM MgCl2, pH adjusted to 7.4 with NaOH); (b) 60 μl bead/membrane/GDP mix prepared by suspending wheat germ agglutinin-polyvinyltoluene (WGA-PVT) scintillation proximity assay (SPA) beads at 100 mg/ml in assay buffer followed by mixing with membrane (prepared in accordance with the methodology described above) and diluting in assay buffer to give a final volume of 60 μl which contains 10 μg protein and 0.5 mg bead per well—mixture is pre-mixed at 4° C. for 30 min on a roller and just prior to addition to the plate, 10 μM final concentration of guanosine 5′ diphosphate (GDP—diluted in assay buffer) is added; (c) 20 μl guanosine 5′ [γ35-S]thiotriphosphate, triethylamine salt (Amersham; radioactivity concentration=37 kBq/μl or 1 mCi/ml; Specific Activity 1160 Ci/mmol) diluted to 1.9 nM in assay buffer to give 0.38 nM final.
The plate is incubated on a shaker at 25° C. for 30 min followed by centrifugation for 5 min at 1500 rpm. The plate is read between 3 and 6 h after completion of centrifuge run in a Wallac Microbeta counter on a 1 min normalised tritium count protocol. Data is analysed using a 4-parameter logistic equation. Basal activity used as minimum.
as §1
Target sequence in this assay (O43193 whole entry): as above
Target sequence in this assay (P09471 2-354 partner limits assumed): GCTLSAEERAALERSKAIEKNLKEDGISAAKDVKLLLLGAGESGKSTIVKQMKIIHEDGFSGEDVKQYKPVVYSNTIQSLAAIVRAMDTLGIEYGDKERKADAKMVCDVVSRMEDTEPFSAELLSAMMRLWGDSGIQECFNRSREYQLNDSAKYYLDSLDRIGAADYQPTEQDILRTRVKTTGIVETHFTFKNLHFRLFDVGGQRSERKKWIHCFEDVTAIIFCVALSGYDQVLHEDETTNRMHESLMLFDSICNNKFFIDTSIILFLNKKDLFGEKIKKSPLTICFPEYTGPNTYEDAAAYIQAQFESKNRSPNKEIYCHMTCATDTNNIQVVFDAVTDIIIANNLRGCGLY
Target sequence in this assay (P62873 2-340 partner limits assumed): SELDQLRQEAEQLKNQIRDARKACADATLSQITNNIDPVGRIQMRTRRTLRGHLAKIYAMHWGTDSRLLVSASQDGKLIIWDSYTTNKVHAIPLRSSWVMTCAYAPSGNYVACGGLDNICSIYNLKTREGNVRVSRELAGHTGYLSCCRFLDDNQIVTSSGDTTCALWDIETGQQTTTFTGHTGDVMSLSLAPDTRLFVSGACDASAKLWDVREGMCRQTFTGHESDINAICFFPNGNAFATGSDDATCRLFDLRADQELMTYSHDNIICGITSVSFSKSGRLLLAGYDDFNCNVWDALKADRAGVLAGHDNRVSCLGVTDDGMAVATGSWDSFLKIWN
Target sequence in this assay (P59768 2-68 partner limits assumed): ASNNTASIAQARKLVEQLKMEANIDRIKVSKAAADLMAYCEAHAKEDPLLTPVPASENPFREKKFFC
Membranes are derived from bulk cell cultures of HEK293 cell lines transiently transfected with hGPR38R and Go G-protein. P2 membranes fractions are prepared, aliquoted and stored at −80° C.
For each compound being assayed, the following is added into a white Greiner 384 well plate:—
(a) 1 μl of test compound diluted to required concentration in DMSO. (b) 20 μl bead/membrane/Saponin/GDP mix prepared as follows;—suspension of LEADseeker wheat germ agglutinin (WGA) scintillation proximity assay (SPA) beads at 25 mg/ml in assay buffer (20 mM N-2-Hydroxyethylpiperazine-N′-2-ethanesulfonic acid (HEPES)+100 mM NaCl+10 mM MgCl2, pH adjusted to 7.4 with KOH) containing saponin at 150 ug/ml. Mixing of bead suspension with membranes at 500 ug/ml (prepared in accordance with the methodology described above) and diluting in assay buffer to give a final volume of 20 μl which contains 5 μg protein and 0.25 mg bead per well.
Mixture is pre-mixed for 30 minutes on a roller and just prior to addition to the plate, 3 μM final assay concentration of guanosine 5′ diphosphate (GDP) (diluted in assay buffer) is added.
(c) 25 μl guanosine 5′ [γ35-S]thiotriphosphate, triethylamine salt (Amersham; radioactivity concentration=37 kBq/μl or 1 mCi/ml; Specific Activity 1160 Ci/mmol) diluted to 0.6 nM in assay buffer to give 0.33 nM final assay concentration.
The plate is then spun for 2 minutes at 1500 rpm and then incubated at room temperature for 4 hours. The plate is then read on a Viewlux Plux (Perkin Elmer). Data is analysed using a 4-parameter logistic equation.

[3] abbreviates: read-out: pEC50 in the FLIPR assay (converted).
Where [4] appears, read: [35S]GTPγS SPA, HEK293 membranes with hGPR38R and Go G-protein, read-out: pEC50 in the GTPγS assay (converted).

Each structure is given as a SMILES string. Bounds are passed on as bounds.

In the case of `C[C@@H]1CN(Cc2ccc(-c3cccnc3C(=O)N3CCC(Cc4ccc(F)cc4)CC3)cc2)C[C@H](C)N1` [Example 1, (3R,5S)-3,5-Dimethyl-1-({4-[2-({4-[(4-Fluorophenyl)methyl]piperidin-1-yl}carbonyl)pyridin-3-yl]phenyl}methyl)piperazine], the EC50 was < 0.316 µM on hGPR38R [1] (setting [3]) and < 3.16 µM on hGPR38R [2] (setting [4]). `COc1cc(-c2cccnc2C(=O)N2CCC(Nc3ccc(F)cc3)CC2)ccc1CN1C[C@@H](C)N[C@@H](C)C1` [Example 17]: the EC50 at hGPR38R [1] (pEC50 in the FLIPR assay) was < 0.316 µM; at hGPR38R [2] it was < 3.16 µM.

As for `C[C@@H]1CN(Cc2ccc(-c3cccnc3C(=O)N3CCC(Nc4ccc(F)cc4)CC3)cc2)C[C@H](C)N1` [Example 2, (3R,5S)-3,5-Dimethyl-1-({4-[2-({4-[(4-fluorophenyl)amino]piperidin-1-yl}carbonyl)pyridin-3-yl]phenyl}methyl)piperazine], the EC50 at hGPR38R [1] (pEC50 in the FLIPR assay) is < 0.316 µM; at hGPR38R [2], < 3.16 µM. In the case of `C[C@@H]1CN(Cc2ccc(-c3cccnc3C(=O)N3CCC(Nc4ccc(F)cc4)C3)cc2)C[C@H](C)N1` (stereo partly drawn) [Example 16, 1-{[3-(4-{[(3R,5S)-3,5-dimethyl-1-piperazinyl]methyl}phenyl)-2-pyridinyl]carbonyl}-N-(4-fluorophenyl)-3-pyrrolidinamine], the EC50 at hGPR38R [1] (setting [3]) is < 0.316 µM; at hGPR38R [2] (setting [4]), < 3.16 µM.

On to `C[C@@H]1CN(Cc2ccc(-c3cccnc3C(=O)N3CC[C@H](Oc4ccc(F)cc4)C3)cc2)C[C@H](C)N1` [Example 18, (3R,5S)-1-({4[2-({(3S)-3-[(4-fluorophenyl)oxy]-1-pyrrolidinyl}carbonyl)-3-pyridinyl]phenyl}methyl)-3,5-dimethylpiperazine], for which the EC50 at hGPR38R [1] (setting [3]) was < 0.316 µM; on hGPR38R [2] (setting [4]), < 3.16 µM. Consider `Cc1nc(C(=O)N2CCC(Nc3ccc(F)cc3)CC2)c(-c2ccc(CN3C[C@@H](C)N[C@@H](C)C3)cc2)s1` [Example 5], for which the EC50 on hGPR38R [2] was < 3.16 µM. The same measure, in the same setting: under `C[C@@H]1CN(Cc2ccc(-n3ccnc3C(=O)N3CCC(Nc4cccc(F)c4)CC3)cc2F)C[C@H](C)N1` [Example 25, 1-{[1-(4-{[(3R,5S)-3,5-dimethyl-1-piperazinyl]methyl}-3-fluorophenyl)-1H-imidazol-2-yl]carbonyl}-N-(3-fluorophenyl)-4-piperidinamine] stands < 3.16 µM.

Take `C[C@@H]1CN(Cc2ccc(-c3cccnc3CN(C)C(=O)CCc3ccc(F)cc3)cc2)C[C@H](C)N1` [Example 3, N-{[3-(4{[(3R,5S)-3,5-Dimethyl-1-piperazinyl]methyl}phenyl)-2-pyridinyl]methyl}-3-(4-fluorophenyl)-N-methylpropanamide]: the EC50 on hGPR38R [1] (setting [3]) is < 0.316 µM; on hGPR38R [2] (setting [4]) it was < 3.16 µM. Consider `C[C@@H]1CN(Cc2ccc(-c3cccnc3C(=O)N3CCC(Nc4cccc(C#N)c4)CC3)cc2F)C[C@H](C)N1` [Example 30, 3-[(1-{[3-(4-{[(3R,5S)-3,5-dimethyl-1-piperazinyl]methyl}-3-fluorophenyl)-2-pyridinyl]car-bonyl}-4-piperidinyl)amino]benzonitrile], for which the EC50 at hGPR38R [2] (setting [4]) is < 3.16 µM.

Regarding `Cc1nc(C(=O)N2CCC(Cc3ccc(F)cc3)CC2)c(-c2ccc(CN3C[C@@H](C)N[C@@H](C)C3)cc2)s1` [Example 4, (3R,5S)-3,5-Dimethyl-1-({4-[4-({4-[(4-fluorophenyl)methyl]piperidin-1-yl}carbonyl)-2-methyl-1,3-thiazol-5-yl]phenyl}methyl)piperazine], on hGPR38R [2] (setting [4]), the EC50 is < 3.16 µM. As for `C[C@@H]1CN(Cc2ccc(-c3cccnc3C(=O)N3CCC(Nc4cc(F)cc(F)c4)CC3)cc2F)C[C@H](C)N1` [Example 27, N-(3,5-difluorophenyl)-1-{[3-(4-{[(3R,5S)-3,5-dimethyl-1-piperazinyl]methyl}-3-fluorophenyl)-2-pyridinyl]carbonyl}-4-piperidinamine], the EC50 on hGPR38R [2] was < 3.16 µM. As to `C[C@@H]1CN(Cc2ccc(-c3cccnc3C(=O)N3CCC(Oc4cccc(F)c4)CC3)cc2F)C[C@H](C)N1` [Example 35, (3R,5S)-1-({2-fluoro-4-[2-({4-[(3-fluorophenyl)oxy]-1-piperidinyl}carbonyl)-3-pyridinyl]phenyl}methyl)-3,5-dimethylpiperazine], the EC50 on hGPR38R [1] (setting [3]) is < 0.316 µM. For `Cc1nc(CN(C)C(=O)COc2ccc(F)cc2)c(-c2ccc(CN3C[C@@H](C)N[C@@H](C)C3)cc2)s1` [Example 7, N-{[5-(4-{[(3R,5S)-3,5-dimethyl-1-piperazinyl]methyl}phenyl)-2-methyl-1,3-thiazol-4-yl]methyl}-2-[(4-fluorophenyl)oxy]-N-methylacetamide], the EC50 on hGPR38R [2] (setting [4]) is < 3.16 µM. As for `C[C@@H]1CN(Cc2ccc(-n3ccnc3C(=O)N3CCC(Nc4ccc(F)cc4)CC3)cc2F)C[C@H](C)N1` [Example 24, 1-{[1-(4-{[(3R,5S)-3,5-dimethyl-1-piperazinyl]methyl}-3-fluorophenyl)-1H-imidazol-2-yl]carbonyl}-N-(4-fluorophenyl)-4-piperidinamine], at hGPR38R [2], the EC50 was < 3.16 µM. Still for that read-out and setting: the value for `C[C@@H]1CN(Cc2ccc(-n3ccnc3C(=O)N3CCC(Nc4ccccc4F)CC3)cc2)C[C@H](C)N1` [Example 23, 1-{[1-(4-{[(3R,5S)-3,5-dimethyl-1-piperazinyl]methyl}phenyl)-1H-imidazol-2-yl]carbonyl}-N-(2-fluorophenyl)-4-piperidinamine] was < 3.16 µM.

The values above are taken from patent US20080312209A1, “Piperazine Heteroaryl Derivatives as Gpr38 Agonists” (Glaxo Group Limited, priority 2005, published 2008).
